Assay results: ChEMBL document CHEMBL4359817 (J Med Chem, 2019)
Converted amounts (≈) assume the structure as drawn. Each block holds one compound with its values, some of them ahead of it.

Legend:
[1] = Oral bioavailability in dog at 1 mg/kg; assay type: ADME, organism-based, Canis lupus familiaris; conditions: in vivo
[2] = Intrinsic clearance in human hepatocytes assessed per million cells; assay type: ADME, cell-based, Hepatocyte; conditions: read-out: CLH
[3] = Clearance in dog at 1 mg/kg, po or 0.5 mg/kg, iv; assay type: ADME, organism-based, Canis lupus familiaris; conditions: in vivo
[4] = Volume of distribution at steady state in dog at 1 mg/kg, po or 0.5 mg/kg, iv; assay type: ADME, organism-based, Canis lupus familiaris; conditions: in vivo, read-out: Vdss
[5] = Drug level in SCID mouse plasma xenografted with human NCI-H1703 cells at 100 mg/kg, po administered once daily via gavage for 21 days measured 4 hrs post-last dose; assay type: ADME, organism-based
[6] = Drug level in SCID mouse plasma xenografted with human NCI-H1703 cells at 100 mg/kg, po administered once daily via gavage for 21 days measured 24 hrs post-last dose; assay type: ADME, organism-based
[7] = Thermodynamic aqueous solubility of the compound at pH 7.4 using crystalline form of sample; assay type: physicochemical; conditions: read-out: Therm_solubility
[8] = Oral bioavailability in Han Wistar rat; assay type: ADME, organism-based; conditions: in vivo
[9] = Time at which plasma concentration stays above in vitro fGI50 for antiproliferative activity against human NCI-H1703 cells in SCID mouse at 100 mg/kg, po; assay type: organism-based; conditions: in vivo
[10] = Intrinsic clearance in human microsomes; assay type: ADME, Microsome
[11] = Lipophilicity, log D of the compound at pH 7.4; assay type: physicochemical; conditions: buffer
[12] = Clearance in iv or po dosed Han Wistar rat; assay type: ADME, organism-based; conditions: in vivo
[13] = Drug level in SCID mouse plasma xenografted with human NCI-H1703 cells assessed as free fraction at 100 mg/kg, po administered once daily via gavage for 21 days measured 24 hrs post-last dose; assay type: ADME, organism-based; conditions: in vivo
[14] = Drug level in SCID mouse plasma xenografted with human NCI-H1703 cells assessed as free fraction at 100 mg/kg, po administered once daily via gavage for 21 days measured 4 hrs post-last dose; assay type: ADME, organism-based; conditions: in vivo
[15] = Volume of distribution at steady state in iv or po dosed Han Wistar rat; assay type: ADME, organism-based; conditions: in vivo, read-out: Vdss
[16] = Intrinsic clearance in rat hepatocytes assessed per million cells; assay type: ADME, cell-based, Hepatocyte; conditions: read-out: CLH
[17] = Thermodynamic aqueous solubility of the compound at pH 7.4; assay type: physicochemical; conditions: read-out: Therm_solubility
[18] = Clearance in Han Wistar rat at 2 mg/kg, po or 0.5 mg/kg, iv; assay type: ADME, organism-based; conditions: in vivo
[19] = Oral bioavailability in Han Wistar rat at 2 mg/kg; assay type: ADME, organism-based; conditions: in vivo
[20] = Volume of distribution at steady state in Han Wistar rat at 2 mg/kg, po or 0.5 mg/kg, iv; assay type: ADME, organism-based; conditions: in vivo, read-out: Vdss
[21] = Time at which plasma concentration stays above in vitro fGI50 for antiproliferative activity against human NCI-H1703 cells in nude mouse at 100 mg/kg, po; assay type: organism-based; conditions: in vivo
[22] = Thermodynamic aqueous solubility of the compound at pH 7.4 using amorphous form of sample; assay type: physicochemical; conditions: read-out: Therm_solubility
[23] = Clearance in CD1 mouse at 100 mg/kg, po; assay type: ADME, organism-based; conditions: in vivo
[24] = Time at which plasma concentration stays above in vitro GI50 for antiproliferative activity against human NCI-H1703 cells in SCID mouse at 100 mg/kg, po; assay type: organism-based; conditions: in vivo
[25] = Time at which plasma concentration stays above in vitro fGI50 for antiproliferative activity against human NCI-H1703 cells in SCID mouse at 100 mg/kg, po administered twice daily; assay type: organism-based; conditions: in vivo
[26] = Volume of distribution at steady state in Han Wistar rat at 1 mg/kg, po or 0.5 mg/kg, iv; assay type: ADME, organism-based; conditions: in vivo, read-out: Vdss
[27] = Oral bioavailability in Han Wistar rat at 1 mg/kg; assay type: ADME, organism-based; conditions: in vivo
[28] = Clearance in Han Wistar rat at 1 mg/kg, po or 0.5 mg/kg, iv; assay type: ADME, organism-based; conditions: in vivo

SMILES: O=C(Cc1ccccc1)Nc1nnc(NCCNc2nnc(NC(=O)Cc3ccccc3)s2)s1
solubility thermodynamic [17]: < 3 µM

SMILES: O=C(Cc1ccccc1)Nc1nnc(CCCCc2nnc(NC(=O)Cc3ccccc3)s2)s1
solubility thermodynamic [17]: < 0.4 µM

SMILES: O=C(Cc1ccccc1)Nc1nnc(N[C@@H]2CCN(c3nnc(NC(=O)CC4CCOCC4)s3)C2)s1
logD ([11]; read-out: logD): 3.2 | solubility thermodynamic [17]: 10 µM (≈ 5.29 µg/mL)

SMILES: O=C(Cc1cccc(OC(F)(F)F)c1)Nc1ccc(CCCCc2nnc(NC(=O)Cc3ccccn3)s2)nn1
hepatocyte CLint [2]: 8 µL/min/1e6 cells | bioavailability [8]: 32% | microsomal CLint [10]: 15 µL/min/mg | logD [11]: 3.9 | clearance [12]: 14 mL/min/kg | Vd [15]: 3 L/kg | hepatocyte CLint [16]: 30.2 µL/min/1e6 cells

SMILES: CO[C@H](C(=O)Nc1nnc(N[C@@H]2CCN(c3nccnn3)C2)s1)c1ccccc1
bioavailability [1]: 90% | hepatocyte CLint [2]: 3 µL/min/1e6 cells | Time [21]: 24 h | clearance [3]: 1 mL/min/kg | bioavailability [8]: 41% | solubility thermodynamic [22]: 516 µM (≈ 213 µg/mL) | microsomal CLint [10]: 3 µL/min/mg | logD ([11]; read-out: logD): 1.7 | clearance [12]: 12 mL/min/kg | Vd [15]: 0.6 L/kg | hepatocyte CLint [16]: 4.1 µL/min/1e6 cells

SMILES: CC(=O)N1CCCCC1CC(=O)Nc1nnc(N2CC[C@@H](Nc3nnc(NC(=O)Cc4ccccc4)s3)C2)s1 (some centres undefined)
logD ([11]; read-out: logD): 2.7 | solubility thermodynamic [17]: 20 µM (≈ 11.4 µg/mL)

SMILES: O=C(Cc1ccccc1)Nc1nnc(N[C@@H]2CCC[C@H]2Nc2nnc(NC(=O)Cc3ccccc3)s2)s1
logD ([11]; read-out: logD): 4.3

SMILES: O=C(Cc1ccccc1)Nc1nnc(CCCCCc2nnc(NC(=O)Cc3ccccc3)s2)s1
solubility thermodynamic [17]: < 0.6 µM

SMILES: O=C(Cc1ccccc1)Nc1nnc(CCSCCc2nnc(NC(=O)Cc3ccccc3)s2)s1
logD ([11]; read-out: logD): > 4

SMILES: CN(CCN(C)c1nnc(NC(=O)Cc2ccccc2)s1)c1nnc(NC(=O)Cc2ccccc2)s1
logD ([11]; read-out: logD): 3.5 | solubility thermodynamic [17]: < 1 µM

SMILES: O=C(Cc1ccccc1)Nc1nnc(CCCc2nnc(NC(=O)Cc3ccccc3)s2)s1
logD ([11]; read-out: logD): 3.6 | solubility thermodynamic [17]: < 0.6 µM

SMILES: CN1CCC(CC(=O)Nc2nnc(N3CC[C@@H](Nc4nnc(NC(=O)Cc5ccccc5)s4)C3)s2)CC1
logD ([11]; read-out: logD): 1.3 | solubility thermodynamic [17]: 150 µM (≈ 81.3 µg/mL)

SMILES: O=C(Cc1ccccc1)Nc1nnc(NC[C@H]2CCN(c3nnc(NC(=O)Cc4ccccc4)s3)C2)s1
logD ([11]; read-out: logD): > 4.2 | solubility thermodynamic [17]: < 0.8 µM

Continued, in another order:

bioavailability [1]: 60% | hepatocyte CLint [2]: < 1 µL/min/1e6 cells | clearance [3]: 4 mL/min/kg | Vd [4]: 0.3 L/kg | concentration at 4 h [5]: 3.57 µM | concentration at 24 h [6]: 3.63 µM | solubility thermodynamic [7]: 78 µM (≈ 32.1 µg/mL) | bioavailability [8]: 47% | microsomal CLint [10]: < 3 µL/min/mg | logD ([11]; read-out: logD): 1.9 | clearance [12]: 35 mL/min/kg | Cp(f) [13]: 0.592 µM | Cp(f) [14]: 0.582 µM | Vd [15]: 2.4 L/kg | hepatocyte CLint [16]: 4.6 µL/min/1e6 cells
SMILES: CO[C@H](C(=O)Nc1nnc(N[C@@H]2CCN(c3cccnn3)C2)s1)c1ccccc1
Time [9]: 24 h

logD ([11]; read-out: logD): 3.8 | solubility thermodynamic [17]: < 0.8 µM
SMILES: O=C(Cc1ccccc1)Nc1nnc(N[C@@H]2CCN(c3nnc(NC(=O)Cc4ccccc4)s3)C2)s1

logD ([11]; read-out: logD): 1.8 | solubility thermodynamic [17]: 5 µM (≈ 2.01 µg/mL)
SMILES: Nc1nnc(N[C@@H]2CCN(c3nnc(NC(=O)Cc4ccccc4)s3)C2)s1

clearance [18]: 54 mL/min/kg | bioavailability [19]: 83% | microsomal CLint [10]: < 3 µL/min/mg | logD ([11]; read-out: logD): 2.06 | Vd [20]: 2 L/kg | solubility thermodynamic [17]: 94 µM (≈ 36 µg/mL) | hepatocyte CLint [16]: 5 µL/min/1e6 cells
SMILES: O=C(Cc1ccccc1)Nc1nnc(N[C@@H]2CCN(c3nccnn3)C2)s1

logD ([11]; read-out: logD): 2.1 | solubility thermodynamic [17]: 130 µM (≈ 50.4 µg/mL)
SMILES: O=C(Cc1ccccc1)Nc1nnc(N[C@@H]2CCN(c3nncs3)C2)s1

microsomal CLint [10]: 3 µL/min/mg | logD ([11]; read-out: logD): 2.2 | solubility thermodynamic [17]: > 228 µM
SMILES: O=C(NCc1ccccc1)c1nnc(N[C@@H]2CCN(c3nccnn3)C2)s1

hepatocyte CLint [2]: < 1 µL/min/1e6 cells | CL/F [23]: 101 mL/min/kg | bioavailability [8]: 2% | microsomal CLint [10]: 3 µL/min/mg | logD ([11]; read-out: logD): 2.2 | solubility thermodynamic [17]: 14 µM (≈ 5.34 µg/mL) | clearance [12]: 50 mL/min/kg | Vd [15]: 1.6 L/kg | hepatocyte CLint [16]: 2 µL/min/1e6 cells
SMILES: O=C(Cc1ccccc1)Nc1nnc(N[C@@H]2CCN(c3cccnn3)C2)s1
Time [24]: 10 h

bioavailability [8]: 0% | solubility thermodynamic [22]: 329 µM (≈ 130 µg/mL) | microsomal CLint [10]: < 3 µL/min/mg | logD ([11]; read-out: logD): 2.6 | clearance [12]: 55 mL/min/kg | Vd [15]: 1.9 L/kg | hepatocyte CLint [16]: 8.7 µL/min/1e6 cells
SMILES: C[C@H](C(=O)Nc1nnc(N[C@@H]2CCN(c3cccnn3)C2)s1)c1ccccc1
Time [25]: 24 h | Time [9]: 15 h

logD ([11]; read-out: logD): 1.9 | solubility thermodynamic [17]: 95 µM (≈ 38.2 µg/mL)
SMILES: Nc1nnc(N2CC[C@@H](Nc3nnc(NC(=O)Cc4ccccc4)s3)C2)s1

logD ([11]; read-out: logD): 0.85 | solubility thermodynamic [17]: 20 µM (≈ 7.93 µg/mL)
SMILES: Nc1nnc(N[C@@H]2CCN(c3ccc(NC(=O)Cc4ccccc4)nn3)C2)s1

logD ([11]; read-out: logD): 2.5 | solubility thermodynamic [17]: 3 µM (≈ 1.33 µg/mL)
SMILES: CC(=O)Nc1nnc(N2CC[C@@H](Nc3nnc(NC(=O)Cc4ccccc4)s3)C2)s1

Vd [26]: 2.7 L/kg | microsomal CLint [10]: < 3 µL/min/mg | logD ([11]; read-out: logD): 2.24 | bioavailability [27]: 12% | solubility thermodynamic [17]: > 559 µM | hepatocyte CLint [16]: 31 µL/min/1e6 cells | clearance [28]: 100 mL/min/kg
SMILES: O=C(NCc1ccccc1)c1nnc(N[C@@H]2CCN(c3cccnn3)C2)s1
